Measured values reported in patent US6815459B2, “Seleno compounds containing nitrone moiety, their preparation and their therapeutic uses” (Sam-Sung Electronics Co., Ltd., priority 2001, dated 2004).
In brackets after ≈: the same amount, converted by molar mass. Read-outs that look alike come from different tables or passages of the source.

Assays:
[1] = Glutathione peroxidase like activity (NADPH-glutathione reductase coupled system); format: biochemical; conditions: 50 μM compound; for Rate A340/min(30˜300 sec) / Rate/0.00622 (nmol NADPH/min/mL): 25° C.; for % Ebselen (glutathione peroxidase activity): relative to Ebselen
Method: Glutathione peroxidase like activity was determined by the reduction of GSSG formed via the NADPH-glutathione reductase system as an indicator system.
To 350 of 50 mM Tris-HCl(pH 7.6) containing 5 mM of EDTA (assay buffer) are added in the following order:
1) 350 of assay buffer containing 6.4 mM of reduced glutathione (GSH), 640 μM of […] (NADPH), and 1.6 unit/mL of glutathione disulfide reductase (GR)
2) 70 of 800 μM of the test compound which was dissolved in DMSO (i.e., each compound was tested at a final concentration of 50 μM)
3) 350 of 0.007% tert-butyl hydroperoxide which was made by 1/10,000 dilution of tert-butyl hydroperoxide with DDW.
The final reaction volume is 1120.
The reaction was carried out at 25° C. […] The said activity or initial enzymatic rate is proportional to the slope of the variation of absorbance with time.
The catalytic activity for oxygen reduction of the compounds tested corresponds to the rate of consumption of NADPH.
They are expressed in n-moles of NADPH consumed per minute.

[2] = Inhibition of lipid peroxidation of liposome (TBA method); format: biochemical; conditions: histidine-FeCl3/FeCl2, 37° C., 15 minutes, read-out: Inhibitor Concentration (IC50), lipid peroxidation
Method: The compounds of the present invention were tested for antioxidant effect in terms of the repression of the radical chain reaction of a multilayer liposome.
The liposome was prepared as followings: 30 mg of commercially available soybean phosphatidylcholine (PC, Sigma Chemical Co., U.S.A.) was dissolved in 1 mL of ethanol, and 200 of the ethanol/PC solution was added to 10 mL of 10 mM Tris buffer including 50 mM NaCl (pH 7.0) with stirring.
The ability of a compound to inhibit oxidation of the liposome was evaluated as followings: To 400 of the liposomes were added the test compound (in buffer or ethanol) and histidine-FeCl3 (167:33 μM final). Oxidation was initiated by the addition of FeCl2 (33 μM final prepared in nitrogen purged water). The mixtures were shaken at 37° C. for 15 minutes. […]. The aliquots were heated to 100° C. for 20 minutes. After ice cooling, 1 mL of chloroform was added to 1 mL of supernatant from tubes and tubes were centrifuged. The absorbances of the resulting supernatant were measured at 532 nm (see: Table 2).

rats [3] = conditions: cited from earlier work
[4] = test system: ischemic neuronal degeneration in hippocampus; assay: Protection of cell damage by ischemia (in vivo); design: species or system Mongolian gerbils (Meriones unguiculatus); conditions: for Protective effects against ischemic neuronal degeneration: gerbil, 60 mg/kg P.O. 30 minutes after ischemic injury (post-treated), 4 days reperfusion
Excerpt: Male Mongolian gerbils (Meriones unguiculatus) weighing 80-88 g were used in the present study. […] A midline ventral incision was made in the neck. Both common carotid arteries were isolated, freed of nerve fibers, and occluded using nontraumatic aneurysm clips. Complete interruption of blood flow was confirmed by observing the central artery in eyeballs using ophthalmoscope. After five minutes of occlusion, the aneurysm clips were removed from both common carotid arteries. Restoration of blood flow (reperfusion) was observed directly under the microscope. Sham-operated controls were subjected to the same surgical procedures except that common carotid arteries were not occluded. Body temperature was monitored and maintained at 37° C.±0.5° C. during surgery and during the immediate postoperative period until the animals recovered fully from anesthesia. At the designated reperfusion time (4 days), operated animals and sham animals were killed. Animals were perfused transcardially with phosphate-buffered saline (PBS, pH 7.4) followed by 4% paraformaldehyde in 0.1 M phosphate buffer (pH 7.4) at 4 days (n=7) after surgery. The brains were removed, and postfixed in the same fixative for 4 hours. The brain tissues were cryoprotected by infiltration with 30% sucrose overnight. Cornoy fixed specimens were cut into 30 sections on a cryostat, were sequentially stained by Cresyl violet dye. Images of staining in the hippocampus of each animal were captured with an […]. […] All data obtained from the quantitative data were analyzed using one-way ANOVA to determine statistical significance. Bonferroni's test was used for post-hoc comparisons. P values below 0.05 or 0.01 were considered statistically significant.

mice = conditions: oral administration; cited from earlier work
[5] = Determination of water solubility (UV, saturated solution); format: physicochemical; conditions: 10 mM phosphate buffer (pH 7.4), stirred 3 hours, filtered; for solubility at 3 h: read-out: C′ (μM) = A′ (C/A), concentration of the saturated solution (water solubility)
Method: With a Beckman DUI® 7500 Spectrophotometer, the UV absorption maximum of each compound was determined by eventually diluting the solution with MeOH as necessary.
A saturated solution of each compound was then prepared by stirring magnetically a small volume of 10 mM phosphate buffer (pH 7.4) in the presence of an excess test compound for 3 hours. The obtained saturated solution was filtered in order to remove solid compound through a Gelman 0.45 m filter and scanned by UV at the wavelength of the absorption maximum previously determined.

rats [6] = assay: Acute toxicity LD50 in rats; format: in vivo

Row | SMILES | Rate A340/min(30˜300 sec) [1] | Rate/0.00622 (nmol NADPH/min/mL) [1] | % Ebselen (glutathione peroxidase activity) [1] | IC50 [2] | Protective effects against ischemic neuronal degeneration [4] | C′ (g/L = mg/mL), concentration of the saturated solution (water solubility) [5] | other results
1 | CC(C)/[N+]([O-])=C\c1ccc(Cn2[se]c3ccccc3c2=O)cc1 [Example 7, 2-[4-(N-isopropyl)nitronyl]benzyl-1,2-benzisoselenazol-3(2H)-one] | −0.084 A340/min | 13.50 nmol NADPH/min/mL | 71.17% | 246 µM |  |  | 
2 | CC(C)/[N+]([O-])=C/c1ccc(-n2[se]c3ccccc3c2=O)cc1 [Example 1, 2-[4-(N-isopropyl)nitronyl]phenyl-1,2-benzisoselenazol-3(2H)-one] | −0.141 A340/min | 22.67 nmol NADPH/min/mL | 119.50% | 81.1 µM |  |  | 
3 | O=c1c2ccccc2[se]n1-c1ccccc1 [Ebselen, reference compound] |  |  |  |  | 59% | 0.001265 g/L = mg/mL | LD50 (rats [3]; intraperitoneal administration): 580 mg/kg; LD50 (rats [3]; oral administration): ≥ 6,810 mg/kg; LD50 (mice): ≥ 6,810 mg/kg; solubility at 3 h ([5]; aqueous buffer, thermodynamic from solid): 4.62 µM (≈ 1.27 µg/mL)
4 | CC(C)(C)[N+]([O-])=Cc1ccccc1S(=O)(=O)O [S-PBN, reference compound] |  |  |  | 25000 µM |  |  | 
5 | CC(C)/[N+]([O-])=C\c1cccc(-n2[se]c3ccccc3c2=O)c1 [Example 2, 2-[3-(N-isopropyl)nitronyl]phenyl-1,2-benzisoselenazol-3(2H)-one] | −0.125 A340/min | 20.10 nmol NADPH/min/mL | 105.96% | 111 µM |  |  | 
6 | CC(C)[N+]([O-])=Cc1csc(-n2[se]c3ccccc3c2=O)n1 [Example 5, 2-[4-(N-isopropyl)nitronyl]thiazol-2-yl-1,2-benzisoselenazol-3(2H)-one] | −0.125 A340/min | 20.13 nmol NADPH/min/mL | 106.11% | 1.2 µM | 61% | 0.0414 g/L = mg/mL | Neuroprotective effects compared with Ebselen ([4]; gerbil ischemia, 60 mg/kg P.O.): more neuroprotective effects against ischemic neuronal degeneration than Ebselen; LD50 (rats [6]; intraperitoneal administration in rats): ≥ 800 mg/kg; LD50 (rats [6]; oral administration in rats): ≥ 7,000 mg/kg; solubility at 3 h [5]: 113.029 µM (≈ 41.4 µg/mL)
